# Measurements: ChEMBL document CHEMBL1201862, “PubChem BioAssay data set” (2004)
# Active and inactive are the calls of the source.
# Key:
# [1] = molecular target: Luciferin 4-monooxygenase (Photinus pyralis, UniProt P08659); test: inhibition of purified Photinus pyralis luciferase – biochemical, luminescence, dose response (AID 1891)
# [2] = molecular target: Voltage-dependent T-type calcium channel subunit alpha-1H (Homo sapiens, UniProt O95180); type: functional;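 also: channel activity triggered by adding a high calcium stimulation buffer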
# [3] = Luminescence Cell-Based Dose Confirmation HTS to Identify Inhibitors of Platelet Dense Granule Release. [Related pubchem assays: 1663 (Primary HTS), 1678 (Summary of Project)]; type: functional
# [4] = molecular target: DNA dC->dU-editing enzyme APOBEC-3G (Homo sapiens, UniProt Q9HC16); type: functional;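 also: Dose-response counterscreen measuring inhibition of APOBEC3G DNA deaminase activity, run while confirming APOBEC3A inhibitors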
# [5] = Luminescence Cell-Based Dose Response HTS to Identify Activators of Luciferase Translation or Activity in H4 […] Cells. [Related pubchem assays: 1829 (Project Summary), 1814 (Primary HTS)]; type: functional
# [6] = Luminescence Cell-Based Dose Confirmation HTS to Identify Activators of 5'UTR Stem-Loop Driven Alpha-Synuclein mRNA Translation in H4 Neuroglioblastoma Cells. [Related pubchem assays: 1829 (Project Summary), 1814 (Primary HTS)]; type: functional
# [7] = molecular target: DNA dC->dU-editing enzyme APOBEC-3A (Homo sapiens, UniProt P31941); test: Dose Response confirmation of small molecule APOBEC3A DNA Deaminase Inhibitors via a fluorescence-based single-stranded DNA deaminase assay. [Related pubchem assays (depositor defined):AID493011, AID493024]; type: functional
# [8] = tested on: H4; test: Luminescence Cell-Based Dose Response HTS to Identify Activators of 5'UTR Stem-Loop Driven Prion Protein mRNA Translation in H4 Neuroglioblastoma Cells. [Related pubchem assays: 1829 (Project Summary), 1814 (Primary HTS)]; type: functional; settings: Homo sapiens
# [9] = molecular target: T1, Short transient receptor potential channel 4 (Mus musculus, UniProt Q9QUQ5); test: calcium entry via TRPC4 opening agents – cell-based, HEK293 TRPC4/mu-opioid, Fluo-4 calcium, dose response (AID 434937); type: functional
# T1 sequence (Q9QUQ5 whole entry): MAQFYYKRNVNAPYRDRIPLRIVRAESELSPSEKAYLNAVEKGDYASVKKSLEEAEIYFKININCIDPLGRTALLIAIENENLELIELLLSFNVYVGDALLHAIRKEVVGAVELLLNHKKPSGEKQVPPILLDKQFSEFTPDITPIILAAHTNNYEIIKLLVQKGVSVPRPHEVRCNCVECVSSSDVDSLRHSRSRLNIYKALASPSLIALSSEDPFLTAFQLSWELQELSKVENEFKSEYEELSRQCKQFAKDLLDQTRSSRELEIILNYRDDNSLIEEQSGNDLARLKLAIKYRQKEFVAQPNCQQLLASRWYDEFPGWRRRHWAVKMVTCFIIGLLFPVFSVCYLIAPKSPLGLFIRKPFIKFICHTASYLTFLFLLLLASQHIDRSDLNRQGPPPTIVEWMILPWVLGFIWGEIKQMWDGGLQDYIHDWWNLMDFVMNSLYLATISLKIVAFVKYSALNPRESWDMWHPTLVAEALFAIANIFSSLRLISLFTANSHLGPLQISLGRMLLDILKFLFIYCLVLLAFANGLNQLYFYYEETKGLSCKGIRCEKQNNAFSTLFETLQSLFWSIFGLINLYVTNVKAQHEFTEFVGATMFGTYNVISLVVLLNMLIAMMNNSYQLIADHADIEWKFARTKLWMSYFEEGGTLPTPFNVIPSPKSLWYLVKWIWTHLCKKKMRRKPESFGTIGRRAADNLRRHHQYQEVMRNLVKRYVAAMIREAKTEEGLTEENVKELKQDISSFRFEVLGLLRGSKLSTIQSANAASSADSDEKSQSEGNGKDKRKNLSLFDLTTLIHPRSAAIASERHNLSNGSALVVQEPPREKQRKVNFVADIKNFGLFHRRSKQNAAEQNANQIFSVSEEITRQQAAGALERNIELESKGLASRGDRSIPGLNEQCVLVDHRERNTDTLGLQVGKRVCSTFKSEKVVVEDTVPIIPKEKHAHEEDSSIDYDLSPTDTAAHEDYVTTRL
# [10] = A cytotoxicity screen of small molecule inhibitors of the PhoP region in Salmonella typhi identified in the primary screen. [Related pubchem assays: 1850, 1864, 1985 ]; type: functional
# [11] = molecular target: T2, Alkaline phosphatase, tissue-nonspecific isozyme (Homo sapiens, UniProt P05186); test: potency against alkaline phosphatase TNAP – biochemical, luminescent, dose response, SAR follow-up (AID 1056)
# T2 sequence (P05186 whole entry): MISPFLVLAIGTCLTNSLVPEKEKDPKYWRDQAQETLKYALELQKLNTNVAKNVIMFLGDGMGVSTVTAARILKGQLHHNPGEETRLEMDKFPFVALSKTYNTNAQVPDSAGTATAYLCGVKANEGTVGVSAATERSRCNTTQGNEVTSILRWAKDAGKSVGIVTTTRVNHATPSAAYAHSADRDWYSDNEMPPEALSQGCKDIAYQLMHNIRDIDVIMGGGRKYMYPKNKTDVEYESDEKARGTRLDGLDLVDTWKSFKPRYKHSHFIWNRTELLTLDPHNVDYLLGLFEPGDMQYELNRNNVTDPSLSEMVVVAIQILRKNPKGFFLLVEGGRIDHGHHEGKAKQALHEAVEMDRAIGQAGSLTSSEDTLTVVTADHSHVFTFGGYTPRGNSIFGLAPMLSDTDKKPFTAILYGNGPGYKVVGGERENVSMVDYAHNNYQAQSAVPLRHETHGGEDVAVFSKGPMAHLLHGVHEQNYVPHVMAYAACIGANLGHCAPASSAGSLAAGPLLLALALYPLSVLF
# [12] = molecular target: Glyceraldehyde-3-phosphate dehydrogenase (Homo sapiens, UniProt P04406)
# [13] = NIH-3T3 fibroblast cytotoxicity, dose response, cytotoxicity control, cell-based, fluorescence, Alamar Blue, secondary assay (AID 2327); type: functional;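 also: NIH-3T3 mouse fibroblasts cultured with fluconazole at 8 µg/mL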
# [14] = molecular target: T3, Bcl-2-like protein 10 (Homo sapiens, UniProt Q9HD36); test: Bcl-B/TR3 peptide binding disruption – biochemical, fluorescence polarization, FITC-TR3 peptide, selectivity assay for Bfl-1 inhibitor project, primary screen (AID 748);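 also: fluorescence polarization from a fluorescein-labelled TR3 peptide binding purified Bcl-B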
# T3 sequence (Q9HD36 whole entry): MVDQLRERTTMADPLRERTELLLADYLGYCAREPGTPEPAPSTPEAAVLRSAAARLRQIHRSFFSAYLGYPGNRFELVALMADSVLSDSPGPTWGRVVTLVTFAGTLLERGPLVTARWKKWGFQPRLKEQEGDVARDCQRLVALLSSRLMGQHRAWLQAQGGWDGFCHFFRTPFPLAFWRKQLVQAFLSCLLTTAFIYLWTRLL
# [15] = viability loss in THP-1 monocytes – THP-1 cells, cytotoxicity control for Vif-APOBEC3G degradation inhibitor project, dose response (AID 1117359); type: functional; settings: THP-1
# [16] = alpha-synuclein stem-loop translation blockers – luminescence, H4 neuroglioblastoma cells, dose confirmation, confirmation (AID 2454); type: functional, cell-based;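 also: H4 neuroglioblastoma cells carrying an alpha-synuclein 5'UTR luciferase reporter; potency for inhibition of the luciferase signal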
# [17] = luciferase reporter signal reduction – luminescence, H4-C neuroglioblastoma cells, dose response (AID 2458); type: functional, cell-based;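 also: H4 neuroglioblastoma cells stably carrying a luciferase reporter gene fusion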
# [18] = cells; type: functional, cell-based
# [19] = luciferase reporter signal suppression in cells – H4 neuroglioma cells, luminescence, dose response (AID 1990); type: functional, cell-based
# [20] = Luminescence Cell-Based Dose Response HTS to Identify Inhibitors of 5'UTR Stem-Loop Driven Prion Protein mRNA Translation in H4 Neuroglioblastoma Cells. [Related pubchem assays: 1827 (Project Summary), 1813 (Primary HTS)]; type: functional
# [21] = molecular target: T4, Cytochrome P450 1A2 (Homo sapiens, UniProt P05177);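 also: PubChem cytochrome P450 panel assay, CYP1A2 panel member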
# T4 sequence (P05177 whole entry): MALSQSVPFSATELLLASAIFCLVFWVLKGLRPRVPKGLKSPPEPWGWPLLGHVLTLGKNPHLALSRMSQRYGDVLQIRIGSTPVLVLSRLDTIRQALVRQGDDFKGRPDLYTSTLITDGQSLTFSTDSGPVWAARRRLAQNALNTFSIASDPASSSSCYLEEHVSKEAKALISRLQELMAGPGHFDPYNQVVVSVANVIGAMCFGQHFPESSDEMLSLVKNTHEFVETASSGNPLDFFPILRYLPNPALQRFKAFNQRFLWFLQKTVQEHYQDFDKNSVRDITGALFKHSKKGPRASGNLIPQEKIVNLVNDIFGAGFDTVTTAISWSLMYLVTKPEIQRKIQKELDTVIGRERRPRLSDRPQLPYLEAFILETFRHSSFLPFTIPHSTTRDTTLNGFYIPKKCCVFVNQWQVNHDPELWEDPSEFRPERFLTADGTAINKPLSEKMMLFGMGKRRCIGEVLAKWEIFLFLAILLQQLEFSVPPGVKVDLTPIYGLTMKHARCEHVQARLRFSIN
# [22] = molecular target: Ion channel NompC (Danio rerio, UniProt Q7T1G6); test: Fluorescence counterscreen assay for TRPML3 agonists: dose response cell-based high-throughput screening assay to identify agonists of the transient receptor potential channel N1 (TRPN1). [Related pubchem assays: 1526, 1424, 1448 ]; type: functional
# [23] = molecular target: T5, Heat shock factor protein 1 (Mus musculus, UniProt P38532); test: decrease of HSF1-responsive luciferase luminescence – cell-based, NIH3T3, dose retest, confirmation (AID 2382); type: functional;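 also: NIH3T3 fibroblasts with HSF1-driven luciferase reporter stressed by proteasome inhibitor MG132; luminescence from HSF1-driven luciferase expression after 8 hours of MG132 stress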
# T5 sequence (P38532 whole entry): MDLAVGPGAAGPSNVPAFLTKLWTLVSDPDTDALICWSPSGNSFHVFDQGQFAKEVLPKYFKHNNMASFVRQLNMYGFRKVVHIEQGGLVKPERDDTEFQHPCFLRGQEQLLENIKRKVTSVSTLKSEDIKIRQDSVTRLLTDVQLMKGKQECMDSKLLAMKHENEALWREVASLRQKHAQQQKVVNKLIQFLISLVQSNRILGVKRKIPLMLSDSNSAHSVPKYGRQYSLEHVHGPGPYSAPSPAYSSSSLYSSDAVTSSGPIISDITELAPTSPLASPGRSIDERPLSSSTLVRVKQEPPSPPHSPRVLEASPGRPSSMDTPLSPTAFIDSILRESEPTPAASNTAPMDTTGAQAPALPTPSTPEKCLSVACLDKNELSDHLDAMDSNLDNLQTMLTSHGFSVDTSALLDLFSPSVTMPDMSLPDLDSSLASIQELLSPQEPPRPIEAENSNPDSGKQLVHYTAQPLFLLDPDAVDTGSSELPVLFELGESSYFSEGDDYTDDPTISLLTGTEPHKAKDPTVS
# [24] = molecular target: T6, Mucolipin-3 (Homo sapiens, UniProt Q8TDD5); test: Dose response cell-based high-throughput screening assay for agonists of the transient receptor potential channel ML3 (TRPML3). [Related pubchem assays: 1526, 1424, 1448 ]; type: functional
# T6 sequence (Q8TDD5 whole entry): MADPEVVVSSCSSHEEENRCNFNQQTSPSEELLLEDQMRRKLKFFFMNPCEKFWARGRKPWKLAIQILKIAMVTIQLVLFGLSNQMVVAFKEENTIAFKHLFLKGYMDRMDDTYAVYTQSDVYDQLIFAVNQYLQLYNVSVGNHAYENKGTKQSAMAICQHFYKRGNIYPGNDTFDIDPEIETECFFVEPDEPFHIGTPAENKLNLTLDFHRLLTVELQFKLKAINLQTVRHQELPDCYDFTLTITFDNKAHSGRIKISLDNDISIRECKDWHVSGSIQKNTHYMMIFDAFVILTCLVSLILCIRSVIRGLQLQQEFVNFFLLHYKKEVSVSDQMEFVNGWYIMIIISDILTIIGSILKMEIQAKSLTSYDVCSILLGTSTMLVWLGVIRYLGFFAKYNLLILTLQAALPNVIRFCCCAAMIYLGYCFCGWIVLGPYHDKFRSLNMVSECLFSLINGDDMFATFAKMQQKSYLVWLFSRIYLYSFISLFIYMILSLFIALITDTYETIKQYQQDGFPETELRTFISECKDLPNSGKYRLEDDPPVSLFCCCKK
# Voltage-dependent T-type calcium channel subunit alpha-1H, sequence (O95180 whole entry): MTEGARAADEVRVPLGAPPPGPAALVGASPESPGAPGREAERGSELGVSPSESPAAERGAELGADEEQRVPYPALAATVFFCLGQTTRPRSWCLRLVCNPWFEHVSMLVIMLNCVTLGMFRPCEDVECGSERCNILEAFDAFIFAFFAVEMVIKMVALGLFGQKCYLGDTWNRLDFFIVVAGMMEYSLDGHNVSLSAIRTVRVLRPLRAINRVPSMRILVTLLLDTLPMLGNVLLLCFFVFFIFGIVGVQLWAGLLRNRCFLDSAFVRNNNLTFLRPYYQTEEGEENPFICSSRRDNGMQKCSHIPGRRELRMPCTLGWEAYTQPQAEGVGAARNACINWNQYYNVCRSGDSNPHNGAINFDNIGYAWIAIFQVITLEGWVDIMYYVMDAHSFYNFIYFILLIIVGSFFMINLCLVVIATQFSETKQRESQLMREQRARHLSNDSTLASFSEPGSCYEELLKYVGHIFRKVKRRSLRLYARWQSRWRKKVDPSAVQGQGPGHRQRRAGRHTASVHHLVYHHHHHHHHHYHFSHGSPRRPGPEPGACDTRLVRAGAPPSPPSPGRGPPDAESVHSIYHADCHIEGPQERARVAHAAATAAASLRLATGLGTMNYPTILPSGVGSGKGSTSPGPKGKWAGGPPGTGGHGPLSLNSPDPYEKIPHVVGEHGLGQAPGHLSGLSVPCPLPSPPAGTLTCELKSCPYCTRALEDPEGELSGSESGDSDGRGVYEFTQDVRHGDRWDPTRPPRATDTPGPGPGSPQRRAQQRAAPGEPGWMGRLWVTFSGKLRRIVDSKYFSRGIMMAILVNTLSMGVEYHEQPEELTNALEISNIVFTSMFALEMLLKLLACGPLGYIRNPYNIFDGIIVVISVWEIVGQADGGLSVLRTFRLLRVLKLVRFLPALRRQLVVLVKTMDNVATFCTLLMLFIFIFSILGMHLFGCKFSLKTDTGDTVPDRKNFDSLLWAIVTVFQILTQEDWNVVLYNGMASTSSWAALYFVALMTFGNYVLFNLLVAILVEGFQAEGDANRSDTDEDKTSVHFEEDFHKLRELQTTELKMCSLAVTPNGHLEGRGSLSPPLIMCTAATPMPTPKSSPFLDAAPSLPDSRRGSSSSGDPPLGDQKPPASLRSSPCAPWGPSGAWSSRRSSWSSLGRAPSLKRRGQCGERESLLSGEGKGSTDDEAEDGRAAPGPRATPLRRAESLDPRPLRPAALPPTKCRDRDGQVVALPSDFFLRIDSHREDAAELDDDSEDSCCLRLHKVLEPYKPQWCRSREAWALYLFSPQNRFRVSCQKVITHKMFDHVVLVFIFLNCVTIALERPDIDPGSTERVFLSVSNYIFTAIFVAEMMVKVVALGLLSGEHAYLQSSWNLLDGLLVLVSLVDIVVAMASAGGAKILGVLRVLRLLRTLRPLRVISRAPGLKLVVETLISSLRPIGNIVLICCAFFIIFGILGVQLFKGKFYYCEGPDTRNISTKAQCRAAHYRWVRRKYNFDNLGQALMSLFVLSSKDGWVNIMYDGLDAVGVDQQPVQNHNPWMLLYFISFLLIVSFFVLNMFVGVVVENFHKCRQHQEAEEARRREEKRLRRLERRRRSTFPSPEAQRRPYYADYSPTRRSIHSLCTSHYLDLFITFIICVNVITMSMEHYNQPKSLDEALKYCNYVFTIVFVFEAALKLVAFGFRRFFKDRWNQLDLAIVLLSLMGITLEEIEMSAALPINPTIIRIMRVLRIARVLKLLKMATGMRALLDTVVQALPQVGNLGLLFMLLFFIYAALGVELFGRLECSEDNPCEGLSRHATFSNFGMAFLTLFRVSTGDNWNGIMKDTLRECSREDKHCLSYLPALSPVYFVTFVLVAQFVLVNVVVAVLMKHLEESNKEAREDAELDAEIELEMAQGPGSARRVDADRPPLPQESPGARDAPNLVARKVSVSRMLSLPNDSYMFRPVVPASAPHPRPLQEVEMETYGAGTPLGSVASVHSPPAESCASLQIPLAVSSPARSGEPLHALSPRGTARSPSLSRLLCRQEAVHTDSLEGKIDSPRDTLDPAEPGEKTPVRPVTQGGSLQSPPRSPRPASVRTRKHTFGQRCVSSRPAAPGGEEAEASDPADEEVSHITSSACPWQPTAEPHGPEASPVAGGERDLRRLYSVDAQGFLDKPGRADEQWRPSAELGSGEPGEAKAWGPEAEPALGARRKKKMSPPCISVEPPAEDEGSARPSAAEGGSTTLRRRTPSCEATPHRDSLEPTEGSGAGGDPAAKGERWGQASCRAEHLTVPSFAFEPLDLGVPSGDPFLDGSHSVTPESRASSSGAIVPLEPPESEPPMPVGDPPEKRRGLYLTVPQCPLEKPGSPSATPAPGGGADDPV
# Luciferin 4-monooxygenase, sequence (P08659 whole entry): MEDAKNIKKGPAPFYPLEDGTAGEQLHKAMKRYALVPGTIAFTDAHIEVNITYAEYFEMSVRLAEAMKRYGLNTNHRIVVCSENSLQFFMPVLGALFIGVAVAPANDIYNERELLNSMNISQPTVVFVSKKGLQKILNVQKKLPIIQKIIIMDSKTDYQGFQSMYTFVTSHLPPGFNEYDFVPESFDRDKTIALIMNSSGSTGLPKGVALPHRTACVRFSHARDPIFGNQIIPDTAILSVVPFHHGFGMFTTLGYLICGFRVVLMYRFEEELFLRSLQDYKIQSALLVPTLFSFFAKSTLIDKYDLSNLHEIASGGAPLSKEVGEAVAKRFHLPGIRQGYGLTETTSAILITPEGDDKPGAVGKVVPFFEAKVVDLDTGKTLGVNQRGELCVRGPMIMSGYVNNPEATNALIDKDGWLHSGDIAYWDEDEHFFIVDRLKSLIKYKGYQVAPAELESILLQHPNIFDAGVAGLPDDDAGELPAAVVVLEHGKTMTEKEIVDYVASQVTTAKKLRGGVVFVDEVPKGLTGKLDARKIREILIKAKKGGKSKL
# Glyceraldehyde-3-phosphate dehydrogenase, sequence (P04406 whole entry): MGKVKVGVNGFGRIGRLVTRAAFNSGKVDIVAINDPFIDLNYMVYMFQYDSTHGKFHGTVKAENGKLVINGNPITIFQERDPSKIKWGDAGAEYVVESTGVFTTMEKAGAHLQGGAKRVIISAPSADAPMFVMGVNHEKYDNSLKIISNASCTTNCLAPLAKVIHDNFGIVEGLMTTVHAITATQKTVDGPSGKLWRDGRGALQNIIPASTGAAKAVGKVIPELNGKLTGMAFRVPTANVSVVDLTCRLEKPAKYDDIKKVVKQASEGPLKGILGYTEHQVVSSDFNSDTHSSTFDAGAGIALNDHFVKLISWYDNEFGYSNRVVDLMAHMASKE
# DNA dC->dU-editing enzyme APOBEC-3A, sequence (P31941 whole entry): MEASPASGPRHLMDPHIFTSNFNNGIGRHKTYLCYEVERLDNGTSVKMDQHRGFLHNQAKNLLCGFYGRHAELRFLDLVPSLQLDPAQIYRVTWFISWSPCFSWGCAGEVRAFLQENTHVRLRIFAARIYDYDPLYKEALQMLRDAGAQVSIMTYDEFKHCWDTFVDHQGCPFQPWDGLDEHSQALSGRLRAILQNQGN
# DNA dC->dU-editing enzyme APOBEC-3G, sequence (Q9HC16 whole entry): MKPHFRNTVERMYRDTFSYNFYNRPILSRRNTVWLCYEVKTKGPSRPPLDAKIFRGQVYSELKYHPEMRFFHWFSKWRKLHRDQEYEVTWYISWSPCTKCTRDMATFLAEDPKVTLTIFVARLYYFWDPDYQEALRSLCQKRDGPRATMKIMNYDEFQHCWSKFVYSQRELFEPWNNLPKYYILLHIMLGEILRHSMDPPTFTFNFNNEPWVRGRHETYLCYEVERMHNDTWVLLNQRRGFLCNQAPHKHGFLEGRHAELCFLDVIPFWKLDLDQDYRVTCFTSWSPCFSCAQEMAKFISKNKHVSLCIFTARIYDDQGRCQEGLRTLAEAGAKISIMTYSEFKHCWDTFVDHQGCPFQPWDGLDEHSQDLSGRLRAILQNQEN
smiles,measurement,setting,value
CC(C)(C)n1nnnc1C(c1ccc(Cl)cc1)N1CCSCC1 (stereo not given),EC50,[1],> 112 µM (not active)
same,EC50,[2],0.85 µM (active)
same,EC50,[3],> 112 µM (not active)
Nc1ccc2nc(SCC(=O)Nc3ccc(N4CCOCC4)c(Cl)c3)sc2c1,IC50,[4],8.08 µM (active)
same,EC50,[5],9.41 µM (active)
same,EC50,[6],14.9 µM (active)
same,IC50,[7],3.65 µM (active)
same,EC50,[8],49.1 µM (active)
O=C(CC1C(=O)NCCN1Cc1ccccc1C(F)(F)F)NCCc1ccccn1 (stereo not given),EC50,[9],6.68 µM (active)
COc1ccc(CCn2c(=N)c(C(=O)NCC3CCCO3)cc3c(=O)n4ccccc4nc32)cc1 (stereo not given),EC50,[10],> 50 µM (active)
same,EC50,[1],> 112 µM (not active)
same,EC50,[3],15.7 µM (active)
CC1=C(C#N)CCC(=O)N1Cc1c(C)cc(C)cc1C,EC50,[10],> 50 µM (active)
COC(=O)c1cc(-c2ccc(C)cc2)[nH]n1,IC50,[11],3.43 µM (active)
same,IC50,[12],> 100 µM (not active)
C#CCSc1nnc(N)[nH]1,IC50,[11],> 100 µM (inactive)
same,IC50,[12],> 100 µM (not active)
CCOc1cc(/C=C(\C#N)C(=O)NCC2CCCO2)ccc1OCC(N)=O (stereo not given),IC50,[4],11 µM (active)
same,IC50,[7],8.13 µM (active)
same,EC50,[13],> 160 µM (inactive)
COc1ccccc1N1CCN(CCCCOc2ccc(F)cc2)CC1,EC50,[2],7.52 µM (active)
O=[N+]([O-])c1cc(-c2ccc(/C=N/c3nc4ccccn4c3-c3ccco3)o2)ccc1Cl,IC50,[14],96.8 µM (inactive)
same,CC50,[15],18.8 µM (active)
COc1ccc(NC(=O)N2CCc3ccccc32)cc1,EC50,[10],> 50 µM (active)
same,EC50,[1],3.53 µM (active)
same,EC50,[3],1.08 µM (active)
Cc1ccc(Cn2cc(C=O)c3ccccc32)cc1,EC50,[16],1.29 µM (active)
same,EC50,[17],1.22 µM (active)
same,EC50,[18],0.782 µM (active)
same,EC50,[19],4.41 µM (active)
same,EC50,[20],< 0.1 µM (active)
Cc1nn2c(N)csc2nc1=O,IC50,[14],> 12.5 µM (inactive)
O=C(Nc1ccc2c(c1)OCCO2)c1cc2sccc2n1Cc1ccccc1,AC50,[21],12.6 µM (inconclusive)
same,EC50,[2],7.92 µM (active)
CCCCn1c(C)cc(C)c(S(=O)(=O)c2ccccc2C)c1=O,EC50,[22],> 29.9 µM (not active)
same,EC50,[23],> 195 µM (not active)
same,EC50,[24],3.78 µM (active)
C=CCSc1nc2c(cnn2-c2ccccc2)c(=O)n1N,EC50,[16],0.235 µM (inconclusive)
same,EC50,[17],0.375 µM (inconclusive)
same,EC50,[18],0.914 µM (inconclusive)
